# Measured values reported in patent US10844051B2, “Substituted oxazoles for the treatment of cancer” (THE ROYAL INSTITUTION FOR THE ADCANCEMENT OF …, priority 2015, dated 2020).
# “Also recorded” adds a separate entry of the source.
# Legend:
# [1] = test system: H23 KRAS-mutant NSCLC cells; assay: MTT assay, H23; assay type: cell-based; conditions: KRAS-mutant NSCLC, 72 hours
# Method: (§1) FIG. 2.7 Compound 673 is cytotoxic in KRAS-mutant NSCLC cells (A549 and H23), but is not toxic the KRAS wild-type NSCLC cells (H322). Cells were exposed to vehicle or compounds (μM) for 72 hours. Viable cells were evaluated by MTT assays.
# Panc 10.05, H23 and HCT-116 cells express endogenous KRAS 12D, 12C and 13D mutants, respectively. Cells were exposed to DMSO vehicle or compounds at designated doses for 72 hours. Experiments were done in triplicate.
# [2] = test system: H322 KRAS wild-type NSCLC cells; assay: MTT assay, H322; assay type: cell-based; conditions: 72 hours
# Method: as §1
# [3] = test system: AR signaling in LNCaP-GATA2, HP-LNCaP, C4-2B and 22Rv1 cells; assay: Western blot, AR signaling in LNCaP-GATA2 and CRPC cells; assay type: cell-based; conditions: LNCaP-GATA2 in FBS medium, 22Rv1 in CSS medium, 72 hours
# Method: FIG. 2.11 By breaking AR-GATA2 feedback loop, compound 673 suppresses the AR signaling in CRPC cells. […] Cells were exposed to DMSO vehicle, BIC, 673 or K7174 at designated doses (μM) for 72 hours.
# [4] = test system: LNCaP-GATA2 cells; assay: BrdU cell proliferation assay in LNCaP-GATA2 cells, combination with bicalutamide; assay type: cell-based; conditions: equi-molar combination, 48 hours
# Method: (§2) (A) PSA-luc reporter assay in LNCaP-GATA2 cells, which were exposed to DMSO vehicle, BIC, 673, or equi-molar combination of Bic and 673 for 72 hours in FBS medium. RLU, relative luciferase unit; (B) BrdU Cell Proliferation Assay (Assay Kit #6813, Cell Signaling Tech.). LNCaP-GATA2 cells were exposed to DMSO vehicle, Bic, 673 or equi-molar combination of Bic and 673 for 48 hours. In the last 8 hours, 10 μM BrdU was added to the plate. **p<0.001, ***p<0.001 when compared with BIC at the same doses; #p<0.05, ##p<0.001 when compared with 673 at the same doses.
# [5] = test system: androgen receptor (AR) signaling in C4-2B prostate cancer cells; assay: Western blot, AR signaling in C4-2B cells; assay type: cell-based
# [6] = molecular target: T1, recombinant protein of human GATA2 (Homo sapiens, UniProt P23769); assay: SPR analysis on amine-coupled GATA2; assay type: binding
# T1 sequence (P23769 1-480): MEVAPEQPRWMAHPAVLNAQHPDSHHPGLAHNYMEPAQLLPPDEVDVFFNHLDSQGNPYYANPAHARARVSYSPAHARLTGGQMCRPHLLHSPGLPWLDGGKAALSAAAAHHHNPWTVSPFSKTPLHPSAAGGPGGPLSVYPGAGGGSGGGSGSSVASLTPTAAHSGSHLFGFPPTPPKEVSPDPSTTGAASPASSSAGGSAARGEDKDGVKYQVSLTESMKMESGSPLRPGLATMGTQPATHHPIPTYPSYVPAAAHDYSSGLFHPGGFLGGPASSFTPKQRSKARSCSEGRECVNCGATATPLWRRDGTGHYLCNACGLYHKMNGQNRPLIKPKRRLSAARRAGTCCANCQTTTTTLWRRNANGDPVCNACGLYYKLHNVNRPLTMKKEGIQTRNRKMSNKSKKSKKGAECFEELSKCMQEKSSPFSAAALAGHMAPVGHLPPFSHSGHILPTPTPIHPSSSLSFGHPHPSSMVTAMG
# Text: In embodiments of the invention, the androgen-bound AR is regressing GATA2 expression and inhibition of AR via castration or use of antiandrogen releases such expression. […] Overexpression of GATA2 confers resistance to antiandrogen bicalutamide (Bic) (FIG. 2.9). Compound 673 is effective against the LNCaP stably transfected with GATA2-expressing plasmid (referred to as LNCaP-GATA2 cells) (FIG. 2.8).
# [7] = test system: A549 KRAS-mutant NSCLC cells; assay: MTT assay, A549; assay type: cell-based; conditions: 72 hours
# Method: as §1
# [8] = molecular target: T2, ERG (Homo sapiens, UniProt P11308); assay: ERG-dependent reporter assay in HEK293 cells; assay type: cell-based; parameters: expressed in transfected cells; host or cells: HEK293; conditions: PUx3-Luc reporter, 48 hours, designated doses
# T2 sequence (P11308 1-486 isoform P11308-3): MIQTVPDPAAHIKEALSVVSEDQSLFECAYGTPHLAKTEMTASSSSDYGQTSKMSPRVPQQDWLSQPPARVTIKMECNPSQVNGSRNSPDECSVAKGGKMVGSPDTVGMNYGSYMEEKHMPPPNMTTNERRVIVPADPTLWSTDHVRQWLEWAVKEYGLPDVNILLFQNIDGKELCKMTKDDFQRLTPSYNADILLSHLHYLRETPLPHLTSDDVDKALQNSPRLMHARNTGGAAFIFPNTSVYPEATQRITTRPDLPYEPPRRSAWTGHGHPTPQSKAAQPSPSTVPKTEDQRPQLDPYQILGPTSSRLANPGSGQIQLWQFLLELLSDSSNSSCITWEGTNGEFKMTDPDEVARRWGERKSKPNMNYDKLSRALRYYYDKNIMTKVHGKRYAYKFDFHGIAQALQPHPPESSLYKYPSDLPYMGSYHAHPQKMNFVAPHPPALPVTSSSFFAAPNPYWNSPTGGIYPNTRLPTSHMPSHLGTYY
# Method: HEK293 cells were transiently transfected with empty vector (for the NT) or ERG-expressing plasmid as well as pRL-TK (internal control) and PUx3-Luc reporter. Cells were then exposed to DMSO vehicle or compounds at designated doses for 48 hours. Experiments were done in triplicate.
# [9] = test system: fusion protein IRF3DBD-GATA2NTD; assay: ISRE-luc reporter assay in PC3 cells, IRF3DBD-GATA2NTD; assay type: cell-based; conditions: 5 μM
# [10] = test system: GATA2 expression in C4-2B cells; assay: Western blot, GATA2 expression in C4-2B cells; assay type: cell-based
# [11] = test system: GATA family members (GATA1, GATA2, GATA3, GATA4); assay: GATA1-, GATA2-, GATA3- and GATA4-dependent reporter assays in IHH cells; assay type: cell-based; conditions: CSS medium, 48 hours
# Method: In contrast, K7174 is not selective. GATA1-, GATA2-, GATA3- and GATA4-dependent reporter assays were done in IHH cells which were exposed to DMSO vehicle, compound 673 or K7174 (μM) in CSS medium for 48 hours.
# [12] = molecular target: T3, human STING (hSTING) (Homo sapiens, UniProt Q86WV6); assay: hSTING ISRE-luc reporter assay in 293T cells; assay type: cell-based; conditions: 24 hours
# T3 construct: expressed in transfected cells; host or cells: 293T
# T3 sequence (Q86WV6 whole entry H232R): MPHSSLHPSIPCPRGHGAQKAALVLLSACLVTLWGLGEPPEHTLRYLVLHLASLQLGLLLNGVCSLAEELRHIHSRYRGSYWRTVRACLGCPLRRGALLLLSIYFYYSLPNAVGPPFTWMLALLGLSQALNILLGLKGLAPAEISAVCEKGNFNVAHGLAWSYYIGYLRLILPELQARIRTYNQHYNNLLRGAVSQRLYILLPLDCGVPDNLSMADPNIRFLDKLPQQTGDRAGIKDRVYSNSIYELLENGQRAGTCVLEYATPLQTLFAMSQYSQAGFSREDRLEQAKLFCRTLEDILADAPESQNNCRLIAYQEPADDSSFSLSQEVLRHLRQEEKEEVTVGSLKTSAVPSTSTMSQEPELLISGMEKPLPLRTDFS
# Method: ISRE-luc (reporter), pRL-TK (internal control) and hSTING-expressing plasmids were transiently transfected into 293T cells. Cells were exposed to DMSO vehicle control or compounds for 24 hours. Experiments were done in triplicate.
# [13] = molecular target: T4, wild-type IRF3 (Homo sapiens, UniProt Q14653); assay: ISRE-luc reporter assay in PC3 cells, wild-type IRF3; assay type: cell-based; conditions: 5 μM
# T4 construct: host or cells: PC3
# T4 sequence (Q14653 whole entry, species assumed): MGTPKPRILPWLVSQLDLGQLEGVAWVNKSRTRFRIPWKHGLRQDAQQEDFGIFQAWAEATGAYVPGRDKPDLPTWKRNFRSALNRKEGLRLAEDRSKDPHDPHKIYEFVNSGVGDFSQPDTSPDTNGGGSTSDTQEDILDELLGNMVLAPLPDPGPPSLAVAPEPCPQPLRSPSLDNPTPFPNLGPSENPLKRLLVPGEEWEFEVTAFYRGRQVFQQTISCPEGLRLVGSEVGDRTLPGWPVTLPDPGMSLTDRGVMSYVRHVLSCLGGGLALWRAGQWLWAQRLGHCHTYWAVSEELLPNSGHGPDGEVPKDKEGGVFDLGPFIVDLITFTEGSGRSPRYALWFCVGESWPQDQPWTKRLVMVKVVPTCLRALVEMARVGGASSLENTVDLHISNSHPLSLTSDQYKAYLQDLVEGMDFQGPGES
# [14] = molecular target: T5, human GATA2 (Homo sapiens, UniProt P23769); assay: GATA2-dependent reporter assay in IHH cells; assay type: cell-based; conditions: GATA-Luc reporter, 48 h
# T5 construct: expressed in transfected cells; host or cells: IHH
# T5 sequence (P23769 1-480): T1 sequence (P23769 1-480)
# Method: K7174 is a known GATA2 inhibitor. The IHH cells were transiently transfected with empty vector (for the NT) or human GATA2-expressing plasmid as well as pRL-TK (internal control) and GATA-Luc reporter plasmids. Cells were exposed to DMSO vehicle or compounds for 48 h. Experiments were in triplicate.
# [15] = molecular target: T6, human GATA3 (Homo sapiens, UniProt P23771); assay: GATA3-dependent reporter assay in IHH cells; assay type: cell-based; conditions: 48 hours
# T6 construct: expressed in transfected cells; host or cells: IHH
# T6 sequence (P23771 whole entry): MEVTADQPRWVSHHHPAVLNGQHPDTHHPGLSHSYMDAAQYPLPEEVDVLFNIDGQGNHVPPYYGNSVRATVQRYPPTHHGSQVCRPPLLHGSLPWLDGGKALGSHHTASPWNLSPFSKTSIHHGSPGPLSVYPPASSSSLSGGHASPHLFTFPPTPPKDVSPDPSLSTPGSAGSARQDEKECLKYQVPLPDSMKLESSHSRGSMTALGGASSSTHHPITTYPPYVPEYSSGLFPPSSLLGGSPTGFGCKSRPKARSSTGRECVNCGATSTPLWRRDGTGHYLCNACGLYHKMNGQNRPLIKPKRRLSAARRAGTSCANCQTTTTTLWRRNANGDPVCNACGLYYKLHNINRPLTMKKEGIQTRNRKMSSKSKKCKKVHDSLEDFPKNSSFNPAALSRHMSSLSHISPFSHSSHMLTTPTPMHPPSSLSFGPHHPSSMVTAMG
# Method: The IHH cells were transiently transfected with empty vector (for the NT) or human GATA3-expressing plasmid as well as pRL-TK (internal control) and GATA-Luc reporter plasmids. Cells were exposed to DMSO vehicle or compounds for 48 hours. Experiments were done in triplicate.
# [16] = test system: PSA-luc reporter in LNCaP-GATA2 cells; assay: PSA-luc reporter assay in LNCaP-GATA2 cells, combination with bicalutamide; assay type: cell-based; conditions: equi-molar combination, 72 hours, FBS medium
# Method: as §2
# [17] = test system: GATA; conditions: read-out: IC50 in reporter assay; cited from earlier work
Structure (SMILES),cytotoxicity in H23 cells (MTT) [1],cytotoxicity in H322 cells (MTT) [2],suppression of AR signaling in LNCaP-GATA2 and CRPC cells (WB) [3],effect of combination with bicalutamide (BIC) in BrdU cell proliferation assay [4],suppression of androgen receptor (AR) signaling (Western blot) [5],"dose-dependent binding to amine-coupled GATA2 (SPR) ([6]; 0-50 μM, 2-fold dilution series)",binding to amine-coupled GATA2 (SPR) ([6]; 50 μM each),cytotoxicity in A549 cells (MTT) [7],ERG inhibition in ERG-dependent reporter assay [8],activity against fusion protein IRF3DBD-GATA2NTD (ISRE-luc) [9],inhibition of GATA2 expression (Western blot) [10],selectivity for GATA2 among GATA family members [11],activation of hSTING in ISRE-luc reporter assay [12],activity against wild-type IRF3 (ISRE-luc) [13],GATA2 inhibition in GATA2-dependent reporter assay [14],activity against GATA3 in GATA3-dependent reporter assay ([15]; 10 μM),activity against GATA3 in GATA3-dependent reporter assay ([15]; compounds at 5 μM),effect of combination with bicalutamide (BIC) in PSA-luc reporter assay [16],IC50 [17]
Fc1cccc(-c2nc(CCCc3c[nH]c4ccccc34)oc2-c2cccc(F)c2)c1 [Compound 673],cytotoxic,not toxic,suppresses the AR signalling in CRPC cells; also recorded: effective in suppressing AR signaling,Synergistic effect,potently inhibits the AR signaling; also recorded: suppresses the androgen receptor (AR) signaling,Specific and dose-dependent binding,Direct binding; also recorded: Specific binding,cytotoxic,ERG inhibitors,active,inhibits GATA2 expression,selectively inhibits GATA2,activate hSTING,inactive,GATA2 inhibitors,inactive against GATA3,inactive against GATA3,Synergistic effect,–
"COc1cc(/C=C/CCCN2CCCN(CCC/C=C/c3cc(OC)c(OC)c(OC)c3)CC2)cc(OC)c1OC [Compound K7174, K7174, reference compound]",–,–,–,–,–,–,–,–,–,–,–,not selective,–,–,–,–,active against GATA3,–,~15 µM
